Laboratory results: patent publication US20240182489A1, “New 5,6,7,8-Tetrahydropyrido[4',3':4,5]thieno[2,3-d]pyrimidin-4(3H)-one Derivatives as Sigma Ligands” (ACONDICIONAMIENTO TARRASENSE, priority 2021, published 2024)

Target: T1, human σ1 receptor (Homo sapiens, UniProt Q99720)
T1 construct: expressed in transfected cells; host or cells: HEK-293 (membranes)
Test: Human σ1 receptor radioligand assay
Format: binding
Details: [3H](+)-pentazocine radioligand, transfected HEK-293 membranes

T1 sequence (Q99720 whole entry): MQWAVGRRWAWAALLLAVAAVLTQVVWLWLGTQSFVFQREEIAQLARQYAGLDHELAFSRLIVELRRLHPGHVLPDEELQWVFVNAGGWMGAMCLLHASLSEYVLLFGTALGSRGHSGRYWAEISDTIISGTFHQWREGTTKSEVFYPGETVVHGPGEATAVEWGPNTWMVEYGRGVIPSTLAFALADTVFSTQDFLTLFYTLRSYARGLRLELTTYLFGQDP

| Structure (SMILES) | Ki [nM] |
| --- | --- |
| C[C@@H](c1ccc(C#N)c(F)c1)n1cnc2sc3c(c2c1=O)CCNC3 [Example 19, (S)-2-Fluoro-4-(1-(4-oxo-5,6,7,8-tetrahydropyrido[4′,3′:4,5]thieno[2,3-d]pyrimidin-3(4H)-yl)ethyl)benzonitrile] | < 500 |
| C[C@H](c1ccc(F)cc1)n1cnc2sc3c(c2c1=O)CNCC3 [Example 17, (R)-3-(1-(4-Fluorophenyl)ethyl)-5,6,7,8-tetrahydropyrido[3′,4′:4,5]thieno[2,3-d]pyrimidin-4(3H)-one] | > 500 |
| C[C@@H](c1ccc(F)cc1Cl)n1cnc2sc3c(c2c1=O)CCNC3 [Example 25, (S)-3-(1-(2-Chloro-4-fluorophenyl)ethyl)-5,6,7,8-tetrahydropyrido[4′,3′:4,5]thieno[2,3-d]pyrimidin-4(3H)-one] | < 500 |
| C[C@H](c1ccc(C#N)c(F)c1)n1cnc2sc3c(c2c1=O)CCNC3 [Example 20, (R)-2-fluoro-4-(1-(4-oxo-5,6,7,8-tetrahydropyrido[4′,3′:4,5]thieno[2,3-d]pyrimidin-3(4H)-yl)ethyl)benzonitrile] | > 500 |
| Cc1nc(-c2ccc(C(C)n3cnc4sc5c(c4c3=O)CCNC5)cc2)no1 (centres unmarked) [Example 24, 3-(1-(4-(5-Methyl-1,2,4-oxadiazol-3-yl)phenyl)ethyl)-5,6,7,8-tetrahydropyrido[4′,3′:4,5]thieno[2,3-d]pyrimidin-4(3H)-one] | > 500 |
| C[C@H](c1cccc(C#N)c1)n1cnc2sc3c(c2c1=O)CCNC3 [Example 14, (R)-3-(1-(4-Oxo-5,6,7,8-tetrahydropyrido[4′,3′:4,5]thieno[2,3-d]pyrimidin-3(4H)-yl)ethyl)benzonitrile] | < 100 |

The next lines start with the values.

| Ki [nM] | Structure (SMILES) |
| --- | --- |
| > 500 | C[C@H](c1ccc(F)cc1Cl)n1cnc2sc3c(c2c1=O)CCNC3 [Example 26, (R)-3-(1-(2-chloro-4-fluorophenyl)ethyl)-5,6,7,8-tetrahydropyrido[4′,3′:4,5]thieno[2,3-d]pyrimidin-4(3H)-one] |
| < 100 | C[C@H](c1cc(F)cc(C#N)c1)n1cnc2sc3c(c2c1=O)CCNC3 [Example 30, (R)-3-Fluoro-5-(1-(4-oxo-5,6,7,8-tetrahydropyrido[4′,3′:4,5]thieno[2,3-d]pyrimidin-3(4H)-yl)ethyl)benzonitrile] |
| < 100 | C[C@@H](c1cc(F)cc(Cl)c1)n1cnc2sc3c(c2c1=O)CCNC3 [Example 27, (S)-3-(1-(3-Chloro-5-fluorophenyl)ethyl)-5,6,7,8-tetrahydropyrido[4′,3′:4,5]thieno[2,3-d]pyrimidin-4(3H)-one] |
| < 500 | C[C@@H](c1cc(Cl)ccc1F)n1cnc2sc3c(c2c1=O)CCNC3 [Example 29, (S)-3-(1-(5-Chloro-2-fluorophenyl)ethyl)-5,6,7,8-tetrahydropyrido[4′,3′:4,5]thieno[2,3-d]pyrimidin-4(3H)-one] |
| < 100 | C[C@H](c1cc(F)cc(Cl)c1)n1cnc2sc3c(c2c1=O)CCNC3 [Example 28, (R)-3-(1-(3-chloro-5-fluorophenyl)ethyl)-5,6,7,8-tetrahydropyrido[4′,3′:4,5]thieno[2,3-d]pyrimidin-4(3H)-one] |
